Experimental findings from patent US12281125B2, “Rapamycin derivatives” (NOVARTIS AG, priority 2018, dated 2025) are described below.

The subject of assay [1] is mTORc1 signaling, pS6 (Ser240/244) in MEF TSCl−/− cells. As to the kind of experiment: Cell-based assay for rapalog potency (pS6) in MEF TSCl−/− cells. The following applies: Mus musculus, 2 hours treatment, average from multiple assays. The procedure:
Rapalog potency was determined using MEF TSCl−/− cell based assay. MEF TSCl−/− cells are Mouse Embryonic Fibroblasts deficient in Tuberous sclerosis protein—TSCl, which negatively regulates mTORc1 signaling and thus display constitutive mTORc1 activation, resulting in phosphorylation (activation) of downstream molecules. This cell-based assay is used to measure inhibition (de-phosphorylation) of S6 and 4EBP1 by rapalogs or other mTOR inhibitors.
MEF TSCl−/− cells were plated on Poly-D-lysine coated 384 well Griener clear bottom plates and incubated overnight at 37° C., 5% CO2. On the following day, cells were washed 8 times with “Hard starve” solution (1 L DPBS+1 g D-(+) glucose+10 ml of 7.5% Sodium Bicarbonate+20 ml of 1M HEPES) and incubated for further 2 hours in the same solution. Cells were next treated with compounds with decreasing concentrations (8 points at 3.16 fold dilutions) and incubated for 2 hours at 37° C., 5% CO2. Cells were fixed with 4% paraformaldehyde for 30 min and washed 5 times with TBS-EDTA followed by immuno-staining with fluorescent tag labeled antibodies for pS6 (Ser240/244) (Cell Signaling #9468) and p4EBP1 (Thr 37/46) (Cell Signaling #5123). Nuclei were visualized with Hoechst (ThermoFisher Scientific #H3570) staining. Cells were imaged (InCell 600) using respective fluorescence channels and the potency of mTOR inhibitors was defined by pS6 IC50 (nM).
In vitro potency of mTOR inhibitors was defined by pS6 IC50 (nM) in MEF TSCl−/− cells.
IC50 values are calculated as the average from multiple assays.

In the next assay the target is T1, FKBP12 (Homo sapiens, UniProt P62942).
T1 construct: made in house; host or cells: E. coli
T1 sequence (P62942 whole entry): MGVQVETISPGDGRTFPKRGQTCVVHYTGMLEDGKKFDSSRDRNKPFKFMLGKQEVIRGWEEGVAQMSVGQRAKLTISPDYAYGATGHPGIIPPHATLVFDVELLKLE
Kind of assay: SPR assay, binding affinity to FKBP12. The following applies: equilibrium dissociation constant. An excerpt: (§1) N-terminal avi-his6-tagged FKBP fusion proteins were expressed in E. coli and purified with nickel chromatography using standard procedures. Biotinylated his-avi-FKBPs were immobilized on a streptavidin chip using a Biacore 8K (GE Healthcare). […] The single-cycle kinetics data were fit to a 1:1 binding model to measure the association rate ka (1/Ms), the dissociation rate kd (1/s) and the affinity KD (M). […] The single-cycle kinetics data was fit to a 1:1 binding model to measure the association rate ka (1/Ms), the dissociation rate kd (1/s) and the apparent affinity KD (M) for ternary complex formation. The equilibrium dissociation constants (KD) to FKBP12, FKBP51, and FKBP52 are shown below in Table 6.
(In SPR one partner is held on a chip, and binding of the other changes the refractive index at the surface.)

A further assay deals with T2, FKBP51 (Homo sapiens, UniProt Q13451).
T2 construct: made in house; host or cells: E. coli
T2 sequence (Q13451 1-457): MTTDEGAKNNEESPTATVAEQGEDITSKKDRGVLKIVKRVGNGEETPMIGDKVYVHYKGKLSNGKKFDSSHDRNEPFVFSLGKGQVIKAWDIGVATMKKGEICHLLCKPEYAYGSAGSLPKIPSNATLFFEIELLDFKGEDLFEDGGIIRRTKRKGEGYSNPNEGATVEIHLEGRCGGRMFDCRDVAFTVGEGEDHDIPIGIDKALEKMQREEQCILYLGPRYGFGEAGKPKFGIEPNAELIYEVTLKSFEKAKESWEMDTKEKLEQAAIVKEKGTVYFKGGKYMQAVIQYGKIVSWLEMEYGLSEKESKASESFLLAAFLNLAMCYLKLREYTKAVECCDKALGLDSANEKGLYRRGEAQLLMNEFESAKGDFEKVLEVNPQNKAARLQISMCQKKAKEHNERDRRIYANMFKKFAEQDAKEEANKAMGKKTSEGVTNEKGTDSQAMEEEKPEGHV
Kind of assay: SPR assay, binding affinity to FKBP51. The following applies: equilibrium dissociation constant.
Description: as §1

Another assay deals with T3, FKBP52 (Homo sapiens, UniProt Q02790).
T3 construct: made in house; host or cells: E. coli
T3 sequence (Q02790 1-459): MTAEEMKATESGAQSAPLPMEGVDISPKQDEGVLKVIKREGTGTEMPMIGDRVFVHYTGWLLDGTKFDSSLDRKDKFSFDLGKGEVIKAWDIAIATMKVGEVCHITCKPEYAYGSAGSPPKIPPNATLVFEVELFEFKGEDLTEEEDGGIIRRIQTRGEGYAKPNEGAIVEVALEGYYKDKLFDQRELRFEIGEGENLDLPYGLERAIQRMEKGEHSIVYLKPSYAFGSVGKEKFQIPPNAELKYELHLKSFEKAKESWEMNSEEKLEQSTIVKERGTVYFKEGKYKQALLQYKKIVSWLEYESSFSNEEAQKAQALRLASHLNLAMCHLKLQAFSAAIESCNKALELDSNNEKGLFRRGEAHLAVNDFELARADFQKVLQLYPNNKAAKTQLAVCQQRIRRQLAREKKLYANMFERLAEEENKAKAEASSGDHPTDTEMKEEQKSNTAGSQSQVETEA
As to the kind of experiment: SPR assay, binding affinity to FKBP52. Conditions: equilibrium dissociation constant. The protocol:
N-terminal avi-his6-tagged FKBP fusion proteins were expressed in E. coli and purified with nickel chromatography using standard procedures. Biotinylated his-avi-FKBPs were immobilized on a streptavidin chip using a Biacore 8K (GE Healthcare). To determine the kinetics-affinity of the rapalogs for FKBPs, rapalogs were diluted in DMSO to 50× working concentration. Next, 3.1 uLs of each rapalog solution was added to 150 uLs of buffer (50 mM Tris pH 7.5/150 mM NaCl/0.01% Tween 20/1 mM DTT) in a 384 deep well plate (greiner bio-one/78127) and mixed using a Biomek FX. The rapalog solution gradients (6 concentrations/2 fold dilutions, 3.1-100 nM or 31-1000 nM or 310-10000 nM) were then injected at 45 uL/min for 120 seconds: contact time and dissociation time was 1800 seconds in running buffer (50 mM Tris pH 7.5/150 mM NaCl/0.01% Tween 20/1 mM DTT/2% DMSO). The single-cycle kinetics data were fit to a 1:1 binding model to measure the association rate ka (1/Ms), the dissociation rate kd (1/s) and the affinity KD (M). […] 3.1 uLs of the 500 μM rapalog solutions were added to 150 uLs of the mTOR samples in a 384 deep well plate (greiner bio-one/78127) and mixed using a Biomek FX. The mTOR solution gradients were then injected at 45 uL/min for 120 seconds: contact time and dissociation time was 1800 seconds in running buffer (50 mM Tris pH 7.5/150 mM NaCl/0.01% Tween 20/1 mM DTT/2% DMSO). The single-cycle kinetics data was fit to a 1:1 binding model to measure the association rate ka (1/Ms), the dissociation rate kd (1/s) and the apparent affinity KD (M) for ternary complex formation.
The equilibrium dissociation constants (KD) to FKBP12, FKBP51, and FKBP52 are shown below in Table 6.

As usually defined, the IC50 is the point on the concentration scale where inhibition reaches its midpoint. A higher IC50 goes with weaker potency in that assay. As usually defined, the Kd is the concentration at which binding is half-saturated. In assay [1], `CO[C@@H]1C[C@H](C[C@@H](C)[C@@H]2CC[C@H](C)/C=C(\C)[C@@H](O)[C@@H](OC)C(=O)[C@H](C)C[C@H](C)/C=C/C=C/C=C(\C)C(N(C)S(C)(=O)=O)C[C@@H]3CC[C@@H](C)[C@@](O)(O3)C(=O)C(=O)N3CCCC[C@H]3C(=O)O2)CC[C@H]1O` (single isomer, unassigned) [Compound 42] came in with an IC50 of 0.3 nM. Further, the Kd at FKBP12 was 6.5 nM; at FKBP51 it was 1230 nM; on FKBP52 it was 1380 nM.
The corresponding values for `CO[C@@H]1C[C@H](C[C@@H](C)[C@@H]2CC[C@H](C)/C=C(\C)[C@@H](O)[C@@H](OC)C(=O)[C@H](C)C[C@H](C)/C=C/C=C/C=C(\C)[C@H](NS(C)(=O)=O)C[C@@H]3CC[C@@H](C)[C@@](O)(O3)C(=O)C(=O)N3CCCC[C@H]3C(=O)O2)CC[C@H]1O` [Compound 1] are 0.55 nM, 0.061 nM, 11 nM and 9.8 nM.
In assay [1], `CCS(=O)(=O)N[C@H]1C[C@@H]2CC[C@@H](C)[C@@](O)(O2)C(=O)C(=O)N2CCCC[C@H]2C(=O)O[C@H]([C@H](C)C[C@@H]2CC[C@@H](O)[C@H](OC)C2)CC[C@H](C)/C=C(\C)[C@@H](O)[C@@H](OC)C(=O)[C@H](C)C[C@H](C)/C=C/C=C/C=C/1C` [Compound 3] had an IC50 of 0.26 nM. Besides, the results for the Kd on FKBP12, at FKBP51 and at FKBP52 were 0.2 nM, 40 nM and 61 nM, respectively.
Regarding `CCS(=O)(=O)N[C@@H]1C[C@@H]2CC[C@@H](C)[C@@](O)(O2)C(=O)C(=O)N2CCCC[C@H]2C(=O)O[C@H]([C@H](C)C[C@@H]2CC[C@@H](O)[C@H](OC)C2)CC[C@H](C)/C=C(\C)[C@@H](O)[C@@H](OC)C(=O)[C@H](C)C[C@H](C)/C=C/C=C/C=C/1C` [Compound 4], in assay [1], the midpoint of inhibition, the IC50, lay at 1.2 nM. Further, the Kd was 0.55 nM at FKBP12, 315 nM at FKBP51 and 256 nM on FKBP52.
The corresponding values for `CO[C@@H]1C[C@H](C[C@@H](C)[C@@H]2CC[C@H](C)/C=C(\C)[C@@H](O)[C@@H](OC)C(=O)[C@H](C)C[C@H](C)/C=C/C=C/C=C(\C)[C@@H](NS(=O)(=O)C3CC3)C[C@@H]3CC[C@@H](C)[C@@](O)(O3)C(=O)C(=O)N3CCCC[C@H]3C(=O)O2)CC[C@H]1O` [Compound 11] are 0.94 nM, 0.29 nM, 45 nM and 63 nM.
The corresponding values for `CO[C@@H]1C[C@H](C[C@@H](C)[C@@H]2CC[C@H](C)/C=C(\C)[C@@H](O)[C@@H](OC)C(=O)[C@H](C)C[C@H](C)/C=C/C=C/C=C(\C)[C@H](NS(=O)(=O)C3CC3)C[C@@H]3CC[C@@H](C)[C@@](O)(O3)C(=O)C(=O)N3CCCC[C@H]3C(=O)O2)CC[C@H]1O` [Compound 12] are 1.1 nM, 0.39 nM, 117 nM and 135 nM.
The corresponding values for `CO[C@@H]1C[C@H](C[C@@H](C)[C@@H]2CC[C@H](C)/C=C(\C)[C@@H](O)[C@@H](OC)C(=O)[C@H](C)C[C@H](C)/C=C/C=C/C=C(\C)[C@H](NS(=O)(=O)CCCCl)C[C@@H]3CC[C@@H](C)[C@@](O)(O3)C(=O)C(=O)N3CCCC[C@H]3C(=O)O2)CC[C@H]1O` [Compound 18] are 6.6 nM, 0.73 nM, 573 nM and 436 nM.
As to `CO[C@@H]1C[C@H](C[C@@H](C)[C@@H]2CC[C@H](C)/C=C(\C)[C@@H](O)[C@@H](OC)C(=O)[C@H](C)C[C@H](C)/C=C/C=C/C=C(\C)[C@@H](NS(C)(=O)=O)C[C@@H]3CC[C@@H](C)[C@@](O)(O3)C(=O)C(=O)N3CCCC[C@H]3C(=O)O2)CC[C@H]1OP(C)(C)=O` [Compound 24], the IC50 in assay [1] came to 0.52 nM. Also, the Kd at FKBP12 is 0.54 nM; on FKBP51, 25 nM; at FKBP52, 90 nM.
For `CO[C@@H]1C[C@H](C[C@@H](C)[C@@H]2CC[C@H](C)/C=C(\C)[C@@H](O)[C@@H](OC)C(=O)[C@H](C)C[C@H](C)/C=C/C=C/C=C(\C)[C@@H](NS(C)(=O)=O)C[C@@H]3CC[C@@H](C)[C@@](O)(O3)C(=O)C(=O)N3CCCC[C@H]3C(=O)O2)CC[C@H]1OCCO` [Compound 26], in that order: 0.086 nM, 0.83 nM, 47 nM and 80 nM.
